# Measurements published in ChEMBL document CHEMBL1201862, “PubChem BioAssay data set” (2004).
# Activity calls are given as the source filed them.
# What was measured:
# [1] = molecular target: Epstein-Barr nuclear antigen 1 (Epstein-Barr virus (strain B95-8) (HHV-4) (Human herpesvirus 4), UniProt P03211); assay: inhibition of EBV nuclear antigen 1 DNA binding – biochemical, fluorescence polarization, 1536-well, dose response (AID 2381); parameters: species or system human gammaherpesvirus 4;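 further: fluorescence polarization of a Cy5 DNA probe bound by EBNA-1 protein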
# [2] = molecular target: Lytic switch protein BZLF1 (Epstein-Barr virus (strain B95-8) (HHV-4) (Human herpesvirus 4), UniProt P03206); assay: inhibition of BZLF1 ZTA DNA binding – biochemical, fluorescence polarization, Epstein-Barr virus, 1536-well, counter-screen for EBNA-1 inhibitor project, dose response (AID 2377); parameters: species or system human gammaherpesvirus 4;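 further: fluorescence polarization of Cy5-labelled ZRE DNA probe bound by purified Zta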
# Cytochrome P450 2C9 = Cytochrome P450 2C9 (Homo sapiens, UniProt P11712)
# cells [3] = assay: cells
# [4] = viability of uninfected HEp-2 cells – cell-based, HTS, cytotoxicity control for RSV inhibitor project, dose response (AID 2410); format: functional; conditions: human respiratory syncytial virus
# [5] = microbe, parasite or virus in culture; format: functional; conditions: Mycobacterium tuberculosis
# [6] = molecular target: Voltage-gated inwardly rectifying potassium channel KCNH2 (Homo sapiens, UniProt Q12809); assay: concentration-dependent hERG rescue from blockers – cell-based, thallium flux, dose response (AID 2121); format: ADME
# [7] = Luminescence Cell-Based Dose Retest to Confirm Inhibitors of Cancer Stem Cells. [Related pubchem assays (depositor defined):AID2717, AID2721]; format: functional; conditions: Homo sapiens
# Bcl-2-related protein A1 [8] = molecular target: T1, Bcl-2-related protein A1 (Mus musculus, UniProt Q07440); assay: small-molecule antagonists of Bfl-1/BH3 interaction – biochemical, TR-FRET, mouse Bfl-1, confirmation (AID 621);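 further: TR-FRET binding of GST-Bfl-1 to FITC-labelled Bid peptide via terbium antibody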
# T1 sequence (Q07440 whole entry): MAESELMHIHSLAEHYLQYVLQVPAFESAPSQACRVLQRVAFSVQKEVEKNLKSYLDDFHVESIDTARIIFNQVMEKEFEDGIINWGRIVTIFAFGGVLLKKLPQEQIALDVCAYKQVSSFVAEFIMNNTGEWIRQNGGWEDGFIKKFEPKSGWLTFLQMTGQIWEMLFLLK
# Bcl-2-related protein A1 [9] = molecular target: T1, Bcl-2-related protein A1; assay: Bfl-1 binding inhibitors, SAR follow-up, biochemical, fluorescence polarization (AID 1070)
# Estrogen receptor [10] = molecular target: T2, Estrogen receptor (Homo sapiens, UniProt P03372);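 further: potency for inhibiting coactivator peptide recruitment to the receptor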
# T2 sequence (P03372 whole entry): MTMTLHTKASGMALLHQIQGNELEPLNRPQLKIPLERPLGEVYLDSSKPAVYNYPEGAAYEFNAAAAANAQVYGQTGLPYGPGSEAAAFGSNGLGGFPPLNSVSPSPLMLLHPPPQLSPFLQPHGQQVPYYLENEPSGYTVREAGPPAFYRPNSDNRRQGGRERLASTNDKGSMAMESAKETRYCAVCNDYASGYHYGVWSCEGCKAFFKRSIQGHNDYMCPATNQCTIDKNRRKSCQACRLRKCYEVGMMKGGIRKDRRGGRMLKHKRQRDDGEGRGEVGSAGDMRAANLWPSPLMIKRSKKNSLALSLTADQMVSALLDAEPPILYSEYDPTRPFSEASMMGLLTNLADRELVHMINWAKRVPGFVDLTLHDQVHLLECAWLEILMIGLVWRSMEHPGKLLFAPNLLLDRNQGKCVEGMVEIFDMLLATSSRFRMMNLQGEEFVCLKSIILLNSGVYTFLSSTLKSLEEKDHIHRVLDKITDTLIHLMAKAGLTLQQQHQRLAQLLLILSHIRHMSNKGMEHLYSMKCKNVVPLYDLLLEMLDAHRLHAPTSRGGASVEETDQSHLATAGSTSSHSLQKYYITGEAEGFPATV
# HEK293 [11] = assay: cells; conditions: Homo sapiens
# HEK293 [12] = assay: cells; conditions: Homo sapiens; remark: listed apart in the source
# Estrogen receptor [13] = molecular target: T2, Estrogen receptor; assay: ERα coactivator recruitment enhancers – biochemical, TR-FRET, ERα LBD, dose response (AID 737)
# [14] = A Cell Based Secondary Assay To Explore Cytotoxicity of Compounds that Sensitize Mycobacterium Tuberculosis to Beta-Lactam Antibiotics.; format: functional
# [15] = Luminescent dose response cell-based high throughput screening assay for inhibitors of the Janus kinase 2 mutant JAK2V617F. [Related pubchem assays: 1446 (Primary screen.), 1521 (Confirmation assay.), 1486 (Counter screen.)]; format: functional
# [16] = molecular target: FAD-linked sulfhydryl oxidase ALR (Homo sapiens, UniProt P55789); assay: ALR-catalysed DTT oxidation blockers – biochemical, H2O2 detection, luminescence, cherry-pick, dose response (AID 493248)
# [17] = molecular target: T3, Rac GTPase-activating protein 1 (Homo sapiens, UniProt Q9H0H5); assay: blockers of MgcRacGAP-driven Rac1 GTP hydrolysis – biochemical, ADP Hunter fluorescence, primary and confirmatory, confirmation (AID 624330); format: functional
# T3 sequence (Q9H0H5 whole entry): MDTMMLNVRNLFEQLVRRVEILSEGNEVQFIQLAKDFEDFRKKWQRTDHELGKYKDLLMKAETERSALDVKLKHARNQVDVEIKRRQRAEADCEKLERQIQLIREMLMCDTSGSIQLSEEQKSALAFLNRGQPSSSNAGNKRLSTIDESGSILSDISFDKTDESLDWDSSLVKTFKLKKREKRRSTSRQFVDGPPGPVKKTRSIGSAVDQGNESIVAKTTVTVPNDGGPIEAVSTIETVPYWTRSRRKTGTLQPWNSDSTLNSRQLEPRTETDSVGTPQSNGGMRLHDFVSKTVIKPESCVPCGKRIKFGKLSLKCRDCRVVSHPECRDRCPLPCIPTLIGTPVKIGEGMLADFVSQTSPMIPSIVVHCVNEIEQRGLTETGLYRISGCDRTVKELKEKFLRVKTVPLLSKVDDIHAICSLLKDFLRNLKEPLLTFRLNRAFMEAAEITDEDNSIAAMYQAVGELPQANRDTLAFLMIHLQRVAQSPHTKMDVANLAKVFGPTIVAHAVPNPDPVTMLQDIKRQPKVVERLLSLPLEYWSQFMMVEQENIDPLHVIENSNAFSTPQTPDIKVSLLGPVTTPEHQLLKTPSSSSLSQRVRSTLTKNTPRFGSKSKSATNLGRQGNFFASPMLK
# BJ [18] = assay: BJ-TERT fibroblast viability loss – cell-based, RAS-independent, luminescence, dose response (AID 1933); format: functional; conditions: Homo sapiens
# BJ [19] = assay: cells; format: functional, cell-based; conditions: Homo sapiens
# BJ [20] = assay: BJ-TERT-LT-ST fibroblast viability loss – cell-based, RAS-independent, luminescence, dose response (AID 1935); format: functional; conditions: Homo sapiens;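 further: BJ fibroblasts immortalized with TERT plus LT and ST oncogenes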
# [21] = DRD fibroblast viability loss – cell-based, non-viral oncogenic, luminescence, dose response (AID 1934); format: functional; conditions: Homo sapiens
# BJ [22] = assay: growth inhibition of engineered Ras-driven BJ cells – cell-based, alamar blue fluorescence, cherrypicked samples, dose response (AID 2631); format: functional; conditions: Homo sapiens;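 further: confirmatory dose-response assay in RAS-dependent BJ fibroblasts engineered with TERT, LT and ST, with cytotoxicity read by fluorescence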
# cells [23] = format: functional
# Galanin receptor type 2 = Galanin receptor type 2 (Homo sapiens, UniProt O43603); assay: Dose Response cell-based high-throughput screening assay to identify antagonists of galanin receptor 2 (GALR2). [Related pubchem assays: 828, 866 ]; format: functional
# Estrogen receptor beta [24] = molecular target: T4, Estrogen receptor beta (Homo sapiens, UniProt Q92731);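 further: recombinant ER-beta bound to coactivator SRC1 peptide in presence of estradiol agonist; inhibitors block coactivator peptide binding and lower the FRET signal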
# Estrogen receptor beta [25] = molecular target: T4, Estrogen receptor beta; assay: blockers of SRC-3 recruitment to ERβ – biochemical, ELISA, streptavidin-HRP readout, orthogonal assay, confirmation (AID 1060)
# [26] = molecular target: 5-hydroxytryptamine receptor 1A (Homo sapiens, UniProt P08908); format: functional
# [27] = molecular target: T5, Heat shock factor protein 1 (Mus musculus, UniProt P38532); assay: enhancement of HSF1-driven luciferase signal – cell-based, NIH3T3, luminescence, dose retest, confirmation (AID 435004); format: functional;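 further: stress induced by proteasome inhibitor MG132 added 30 min after compound; luciferase reporter driven by HSF1 response element in NIH3T3 cells; actives raise luminescence as potentiators of the MG132 stress response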
# T5 sequence (P38532 whole entry): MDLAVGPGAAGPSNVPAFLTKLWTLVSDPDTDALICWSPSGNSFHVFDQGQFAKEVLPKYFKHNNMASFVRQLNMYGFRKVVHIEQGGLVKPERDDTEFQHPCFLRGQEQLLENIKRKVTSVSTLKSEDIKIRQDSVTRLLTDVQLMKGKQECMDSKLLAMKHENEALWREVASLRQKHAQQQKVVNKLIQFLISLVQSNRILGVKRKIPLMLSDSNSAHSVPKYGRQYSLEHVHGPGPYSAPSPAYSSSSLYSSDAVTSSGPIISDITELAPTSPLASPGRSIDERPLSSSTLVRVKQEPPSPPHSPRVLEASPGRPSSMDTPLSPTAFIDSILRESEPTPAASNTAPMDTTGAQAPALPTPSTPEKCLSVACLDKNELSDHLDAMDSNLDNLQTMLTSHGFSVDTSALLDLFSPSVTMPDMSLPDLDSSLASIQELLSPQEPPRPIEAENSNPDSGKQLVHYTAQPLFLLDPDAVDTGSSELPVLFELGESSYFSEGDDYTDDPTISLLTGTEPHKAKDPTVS
# [28] = Fluorescence-based cell-based high throughput dose response assay for inhibitors of the interaction of nucleotide-binding oligomerization domain containing 2 (NOD2) and the receptor-interacting serine-threonine kinase 2 (RIPK2).; format: functional; conditions: Homo sapiens
# [29] = glucagon-like peptide-1 release potency in STC-1, concentration-response, half-maximal inhibitory concentration in the STC-1 line (AID 1117345); format: functional, cell-based
# [30] = Potency on glucagon-like peptide 1 release, dose-response in NCI-H716 cell line, half maximal inhibitory concentration (AID 1117344); format: functional, cell-based
# T4 sequence (Q92731 whole entry): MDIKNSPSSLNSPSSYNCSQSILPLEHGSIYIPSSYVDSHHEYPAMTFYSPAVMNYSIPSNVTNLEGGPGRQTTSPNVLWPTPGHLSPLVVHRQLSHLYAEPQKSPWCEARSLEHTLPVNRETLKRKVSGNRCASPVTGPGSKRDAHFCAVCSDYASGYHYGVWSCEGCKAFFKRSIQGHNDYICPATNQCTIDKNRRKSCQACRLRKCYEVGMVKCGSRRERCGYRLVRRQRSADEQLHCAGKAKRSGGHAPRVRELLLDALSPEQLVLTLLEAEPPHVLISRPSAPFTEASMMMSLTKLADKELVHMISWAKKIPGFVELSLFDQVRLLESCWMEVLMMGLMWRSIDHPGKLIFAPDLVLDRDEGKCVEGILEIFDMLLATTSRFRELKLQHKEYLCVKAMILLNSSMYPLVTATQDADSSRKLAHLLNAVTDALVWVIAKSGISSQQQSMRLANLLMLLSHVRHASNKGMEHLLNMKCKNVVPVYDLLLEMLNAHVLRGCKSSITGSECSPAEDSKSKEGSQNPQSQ
# Chain of Epstein-Barr nuclear antigen 1 (P03211 whole entry): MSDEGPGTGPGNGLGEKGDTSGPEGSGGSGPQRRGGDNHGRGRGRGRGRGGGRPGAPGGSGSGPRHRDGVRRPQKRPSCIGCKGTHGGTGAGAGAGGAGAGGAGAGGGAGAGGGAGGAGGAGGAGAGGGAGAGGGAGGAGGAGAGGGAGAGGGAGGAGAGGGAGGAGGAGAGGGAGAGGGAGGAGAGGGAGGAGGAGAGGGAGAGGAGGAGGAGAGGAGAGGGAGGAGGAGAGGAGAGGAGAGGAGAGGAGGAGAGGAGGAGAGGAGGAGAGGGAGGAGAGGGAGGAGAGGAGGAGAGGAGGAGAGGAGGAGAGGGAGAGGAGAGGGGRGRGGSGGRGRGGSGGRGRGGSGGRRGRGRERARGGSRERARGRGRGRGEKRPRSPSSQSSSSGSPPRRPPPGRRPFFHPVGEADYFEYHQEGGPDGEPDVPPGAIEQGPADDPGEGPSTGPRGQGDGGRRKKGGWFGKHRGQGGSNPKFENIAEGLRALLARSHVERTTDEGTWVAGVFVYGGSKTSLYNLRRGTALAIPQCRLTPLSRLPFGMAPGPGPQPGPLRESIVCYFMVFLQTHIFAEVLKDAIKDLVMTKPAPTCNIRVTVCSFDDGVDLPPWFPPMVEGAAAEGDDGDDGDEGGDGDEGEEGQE
# Chain of Galanin receptor type 2 (O43603 whole entry): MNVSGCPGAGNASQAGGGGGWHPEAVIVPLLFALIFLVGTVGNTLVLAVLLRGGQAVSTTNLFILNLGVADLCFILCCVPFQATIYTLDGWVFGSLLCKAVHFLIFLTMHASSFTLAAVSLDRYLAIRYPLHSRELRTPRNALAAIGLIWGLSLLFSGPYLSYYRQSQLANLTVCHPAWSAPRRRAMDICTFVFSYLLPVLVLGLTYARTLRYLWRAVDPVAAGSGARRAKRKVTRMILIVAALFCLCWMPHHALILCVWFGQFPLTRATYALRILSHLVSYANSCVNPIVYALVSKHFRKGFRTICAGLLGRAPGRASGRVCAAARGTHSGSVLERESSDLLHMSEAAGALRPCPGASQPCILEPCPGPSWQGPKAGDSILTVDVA
# Chain of Lytic switch protein BZLF1 (P03206 whole entry): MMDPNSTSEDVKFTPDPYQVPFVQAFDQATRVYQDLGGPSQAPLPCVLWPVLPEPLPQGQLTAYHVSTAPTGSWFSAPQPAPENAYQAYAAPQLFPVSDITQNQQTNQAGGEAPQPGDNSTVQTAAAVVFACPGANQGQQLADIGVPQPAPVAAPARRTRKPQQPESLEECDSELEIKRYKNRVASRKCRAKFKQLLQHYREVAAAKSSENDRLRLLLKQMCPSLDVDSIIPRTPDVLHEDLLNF
# Chain of Voltage-gated inwardly rectifying potassium channel KCNH2 (Q12809 whole entry): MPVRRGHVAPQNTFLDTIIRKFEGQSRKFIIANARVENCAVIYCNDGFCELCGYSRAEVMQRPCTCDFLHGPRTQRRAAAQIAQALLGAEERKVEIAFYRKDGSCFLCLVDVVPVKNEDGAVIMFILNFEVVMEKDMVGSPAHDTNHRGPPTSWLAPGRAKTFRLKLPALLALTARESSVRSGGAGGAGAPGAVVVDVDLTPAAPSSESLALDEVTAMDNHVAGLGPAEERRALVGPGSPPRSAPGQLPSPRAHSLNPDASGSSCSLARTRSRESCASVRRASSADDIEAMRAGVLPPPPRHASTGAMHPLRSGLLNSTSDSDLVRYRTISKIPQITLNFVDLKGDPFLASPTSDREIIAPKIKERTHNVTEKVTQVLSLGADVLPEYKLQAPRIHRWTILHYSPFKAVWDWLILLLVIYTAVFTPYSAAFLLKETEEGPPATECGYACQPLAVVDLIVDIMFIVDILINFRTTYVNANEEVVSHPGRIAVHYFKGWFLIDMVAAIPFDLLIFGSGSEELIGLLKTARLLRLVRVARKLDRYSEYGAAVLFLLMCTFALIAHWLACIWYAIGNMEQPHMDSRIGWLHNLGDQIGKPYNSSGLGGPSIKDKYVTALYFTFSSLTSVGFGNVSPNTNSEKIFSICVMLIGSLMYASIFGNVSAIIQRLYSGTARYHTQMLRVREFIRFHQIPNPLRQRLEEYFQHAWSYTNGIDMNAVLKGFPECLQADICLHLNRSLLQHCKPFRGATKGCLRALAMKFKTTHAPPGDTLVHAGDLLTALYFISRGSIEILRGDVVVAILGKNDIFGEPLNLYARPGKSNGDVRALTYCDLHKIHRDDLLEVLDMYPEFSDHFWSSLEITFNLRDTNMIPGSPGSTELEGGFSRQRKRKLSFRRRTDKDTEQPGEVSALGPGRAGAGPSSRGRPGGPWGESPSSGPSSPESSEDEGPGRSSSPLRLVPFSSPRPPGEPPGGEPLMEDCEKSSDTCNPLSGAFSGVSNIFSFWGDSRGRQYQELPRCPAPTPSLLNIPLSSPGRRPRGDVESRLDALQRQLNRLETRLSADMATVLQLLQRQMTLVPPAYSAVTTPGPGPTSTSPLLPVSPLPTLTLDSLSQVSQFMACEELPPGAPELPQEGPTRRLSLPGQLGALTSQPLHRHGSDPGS
# Chain of 5-hydroxytryptamine receptor 1A (P08908 whole entry): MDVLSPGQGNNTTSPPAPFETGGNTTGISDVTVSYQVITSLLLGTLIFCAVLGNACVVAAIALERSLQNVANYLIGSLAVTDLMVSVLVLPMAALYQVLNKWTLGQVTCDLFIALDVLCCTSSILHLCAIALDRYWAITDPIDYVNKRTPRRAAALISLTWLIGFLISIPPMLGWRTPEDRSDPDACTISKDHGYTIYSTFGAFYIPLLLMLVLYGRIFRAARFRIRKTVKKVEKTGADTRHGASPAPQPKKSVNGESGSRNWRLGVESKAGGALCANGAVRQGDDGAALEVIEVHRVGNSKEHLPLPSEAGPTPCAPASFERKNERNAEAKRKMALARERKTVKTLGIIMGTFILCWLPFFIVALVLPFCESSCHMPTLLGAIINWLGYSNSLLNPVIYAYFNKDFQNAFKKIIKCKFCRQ
# Chain of FAD-linked sulfhydryl oxidase ALR (P55789 whole entry): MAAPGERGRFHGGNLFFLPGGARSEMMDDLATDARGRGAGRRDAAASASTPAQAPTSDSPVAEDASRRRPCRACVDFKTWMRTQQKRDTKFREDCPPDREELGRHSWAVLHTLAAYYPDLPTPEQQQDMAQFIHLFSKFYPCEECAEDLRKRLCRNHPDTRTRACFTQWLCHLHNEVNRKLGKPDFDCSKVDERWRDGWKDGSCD
# Chain of Cytochrome P450 2C9 (P11712 whole entry): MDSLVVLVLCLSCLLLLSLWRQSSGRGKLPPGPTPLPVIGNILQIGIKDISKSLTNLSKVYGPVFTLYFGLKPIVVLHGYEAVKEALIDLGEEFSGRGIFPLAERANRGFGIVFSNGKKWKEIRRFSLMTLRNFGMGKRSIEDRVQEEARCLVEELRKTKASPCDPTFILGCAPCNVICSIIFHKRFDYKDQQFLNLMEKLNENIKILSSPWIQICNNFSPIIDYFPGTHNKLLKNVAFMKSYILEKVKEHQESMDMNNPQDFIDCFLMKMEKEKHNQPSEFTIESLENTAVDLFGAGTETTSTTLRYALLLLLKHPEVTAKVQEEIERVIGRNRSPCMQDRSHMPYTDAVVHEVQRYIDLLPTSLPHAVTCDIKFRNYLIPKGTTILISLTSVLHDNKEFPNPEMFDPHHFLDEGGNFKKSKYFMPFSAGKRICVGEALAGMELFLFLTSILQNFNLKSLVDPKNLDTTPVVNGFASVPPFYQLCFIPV
compound,measurement,setting,value
Cn1cc(/C=C2/SC(=O)N(CC(=O)Nc3ccc4c(c3)OCO4)C2=O)c2ccccc21,IC50,[1],5.72 µM (active)
same,IC50,[2],> 111 µM (not active)
same,AC50,Cytochrome P450 2C9,7.08 µM (inconclusive)
COc1ccc(C(C(=O)NC2CCCC2)N(C(=O)c2snc(C(N)=O)c2N)c2cc(C)ccc2OC)cc1OC (stereo not drawn),IC50,cells [3],6.11 µM (active)
O=C(NC(=S)Nc1ccc(N2CCCCC2)c(Cl)c1)c1cccs1,CC50,[4],17.3 µM (active)
same,CC50,[5],> 40 µM (active)
same,EC50,[6],200 nM (active)
same,AC50,[7],6.16 µM (active)
c1ccc(-n2nnc(-c3cnc4ccccc4c3)n2)cc1,IC50,Bcl-2-related protein A1 [8],> 100 µM (not active)
same,IC50,Bcl-2-related protein A1 [9],> 100 µM (not active)
Clc1ncccc1-c1nnn(-c2ccccc2)n1,IC50,Bcl-2-related protein A1 [8],> 100 µM (not active)
same,IC50,Bcl-2-related protein A1 [9],> 100 µM (not active)
O=C(Nc1ccccc1[N+](=O)[O-])C1=C(O)CCn2c1nc1ccccc12,IC50,Estrogen receptor [10],18.6 µM (active)
same,EC50,HEK293 [11],> 59.7 µM (inactive)
same,EC50,HEK293 [12],> 59.7 µM (inactive)
CCOc1ccccc1N1C(=O)NC(=O)C(CCc2ccncc2)(CCc2ccncc2)C1=O,EC50,Estrogen receptor [13],12.7 µM (active)
Cc1ccc(C(=O)c2oc3ccccc3c2NC(=O)c2cc(-c3cc(C)ccc3O)[nH]n2)cc1,CC50,[14],7.97 µM (active)
CN(c1ccccc1)S(=O)(=O)c1cccc(C(=O)NCCc2ccc(O)c(O)c2)c1,IC50,[15],7.29 µM (active)
same,AC50,[16],4.37 µM (active)
same,IC50,[17],69.2 µM (active)
Nc1nc(CCl)nc(N(c2ccccc2)c2ccccc2)n1,IC50,[15],0.721 µM (active)
same,EC50,BJ [18],0.652 µM (inconclusive)
same,EC50,BJ [19],2.65 µM (active)
same,EC50,BJ [20],12.1 µM (inconclusive)
same,EC50,[21],0.674 µM (active)
same,EC50,BJ [22],229 nM (active)
CC1CCCCC1NC(=S)NC(=O)c1sc2ccccc2c1Cl (stereo not drawn),EC50,[6],4870 nM (active)
COc1ccc(NC(=O)CSc2nc(N)c(C(=O)Nc3ccc(N(C)C)cc3)s2)cc1,CC50,[14],> 40 µM (active)
CCCCC1CCC(C(=O)Nc2ccc(S(=O)(=O)Nc3nccs3)cc2)CC1 (stereo not drawn),CC50,[4],34.3 µM (active)
same,IC50,cells [23],14.5 µM (active)
same,IC50,cells [3],36.5 µM (active)
COc1ccc(NC(=O)NCc2ccc3c(c2)OCO3)c(OC)c1,IC50,[1],18.3 µM (not active)
same,IC50,[2],> 111 µM (not active)
Cc1ccc(S(=O)(=O)NCc2ccncc2)cc1,IC50,Galanin receptor type 2,> 42 µM (not active)
O=C(COC(=O)C1CC2C=CC1C2)NCc1ccco1 (stereo not drawn),IC50,Estrogen receptor beta [24],7.15 µM (active)
same,IC50,Estrogen receptor beta [25],> 109 µM (not active)
CN1CC=C(c2c[nH]c3ccccc23)CC1,EC50,[26],12 µM (not active)
COc1cc(/C=C/[N+](=O)[O-])ccc1O,EC50,BJ [18],10.6 µM (inconclusive)
same,IC50,Galanin receptor type 2,> 4.6 µM (not active)
same,EC50,BJ [19],15.5 µM (active)
same,EC50,BJ [20],> 75 µM (inconclusive)
same,EC50,[21],10.3 µM (active)
same,EC50,[27],8.18 µM (active)
same,EC50,BJ [22],4460 nM (active)
same,IC50,[28],4.84 µM (active)
C/C=C(/C(=C/C)c1ccc(O)cc1)c1ccc(O)cc1 [DIENESTROL],EC50,Estrogen receptor [13],13.2 µM (active)
same,IC50,[29],> 40 µM (inactive)
same,IC50,[30],> 40 µM (inactive)
